We go through one molecule from BindingDB's records for patent US10913744 (Dana-Farber Cancer Institute, 2021).

Experiment [1] deals with T1, Leucine-rich repeat serine/threonine-protein kinase 2 [1326-2527,G2019S] (Homo sapiens, UniProt Q5S007, G2019S).
T1 construct: 1326-2527
Nature of the experiment: Enzyme Assay. How it is done: (§1) Samples were washed extensively and the incorporation of [γ-32P]ATP into Nictide was quantified by Cerenkov counting. IC50 values were calculated with GraphPad Prism using non-linear regression analysis.

The target in experiment [2] is T2, Leucine-rich repeat serine/threonine-protein kinase 2 [1326-2527] (Homo sapiens, UniProt Q5S007).
T2 construct: 1326-2527
T2 sequence (Q5S007 whole entry): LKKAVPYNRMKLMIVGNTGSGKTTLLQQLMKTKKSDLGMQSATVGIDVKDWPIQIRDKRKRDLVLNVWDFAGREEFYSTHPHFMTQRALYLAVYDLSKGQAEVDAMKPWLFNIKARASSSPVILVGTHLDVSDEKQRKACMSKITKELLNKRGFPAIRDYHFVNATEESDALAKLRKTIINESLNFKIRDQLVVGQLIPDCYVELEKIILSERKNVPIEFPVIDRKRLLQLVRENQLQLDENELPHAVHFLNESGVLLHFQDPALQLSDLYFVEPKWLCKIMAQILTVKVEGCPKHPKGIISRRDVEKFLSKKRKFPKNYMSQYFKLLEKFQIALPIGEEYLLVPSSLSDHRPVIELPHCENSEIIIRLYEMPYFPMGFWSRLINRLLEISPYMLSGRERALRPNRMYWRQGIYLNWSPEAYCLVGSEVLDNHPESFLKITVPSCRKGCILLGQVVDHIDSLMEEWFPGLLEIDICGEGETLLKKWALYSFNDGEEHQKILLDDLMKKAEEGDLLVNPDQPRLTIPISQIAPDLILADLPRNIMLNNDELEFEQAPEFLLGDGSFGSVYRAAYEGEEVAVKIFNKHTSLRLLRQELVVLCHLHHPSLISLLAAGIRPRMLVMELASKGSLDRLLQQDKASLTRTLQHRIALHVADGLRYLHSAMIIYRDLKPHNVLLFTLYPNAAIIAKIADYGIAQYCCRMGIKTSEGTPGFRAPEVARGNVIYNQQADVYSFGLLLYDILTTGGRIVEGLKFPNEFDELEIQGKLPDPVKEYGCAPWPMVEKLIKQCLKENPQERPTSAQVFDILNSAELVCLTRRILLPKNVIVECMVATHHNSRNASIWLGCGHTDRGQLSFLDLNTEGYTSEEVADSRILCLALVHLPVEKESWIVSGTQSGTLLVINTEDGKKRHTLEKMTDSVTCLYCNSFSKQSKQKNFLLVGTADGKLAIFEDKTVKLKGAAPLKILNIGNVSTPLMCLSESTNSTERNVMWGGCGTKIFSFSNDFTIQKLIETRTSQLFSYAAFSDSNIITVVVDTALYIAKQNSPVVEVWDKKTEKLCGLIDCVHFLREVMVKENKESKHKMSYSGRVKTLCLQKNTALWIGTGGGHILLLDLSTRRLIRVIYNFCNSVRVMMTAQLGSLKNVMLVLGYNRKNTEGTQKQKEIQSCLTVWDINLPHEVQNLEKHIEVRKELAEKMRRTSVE
Kind of experiment: Enzyme Assay. The method, then:
as §1

T1 sequence (Q5S007 1326-2527 G2019S): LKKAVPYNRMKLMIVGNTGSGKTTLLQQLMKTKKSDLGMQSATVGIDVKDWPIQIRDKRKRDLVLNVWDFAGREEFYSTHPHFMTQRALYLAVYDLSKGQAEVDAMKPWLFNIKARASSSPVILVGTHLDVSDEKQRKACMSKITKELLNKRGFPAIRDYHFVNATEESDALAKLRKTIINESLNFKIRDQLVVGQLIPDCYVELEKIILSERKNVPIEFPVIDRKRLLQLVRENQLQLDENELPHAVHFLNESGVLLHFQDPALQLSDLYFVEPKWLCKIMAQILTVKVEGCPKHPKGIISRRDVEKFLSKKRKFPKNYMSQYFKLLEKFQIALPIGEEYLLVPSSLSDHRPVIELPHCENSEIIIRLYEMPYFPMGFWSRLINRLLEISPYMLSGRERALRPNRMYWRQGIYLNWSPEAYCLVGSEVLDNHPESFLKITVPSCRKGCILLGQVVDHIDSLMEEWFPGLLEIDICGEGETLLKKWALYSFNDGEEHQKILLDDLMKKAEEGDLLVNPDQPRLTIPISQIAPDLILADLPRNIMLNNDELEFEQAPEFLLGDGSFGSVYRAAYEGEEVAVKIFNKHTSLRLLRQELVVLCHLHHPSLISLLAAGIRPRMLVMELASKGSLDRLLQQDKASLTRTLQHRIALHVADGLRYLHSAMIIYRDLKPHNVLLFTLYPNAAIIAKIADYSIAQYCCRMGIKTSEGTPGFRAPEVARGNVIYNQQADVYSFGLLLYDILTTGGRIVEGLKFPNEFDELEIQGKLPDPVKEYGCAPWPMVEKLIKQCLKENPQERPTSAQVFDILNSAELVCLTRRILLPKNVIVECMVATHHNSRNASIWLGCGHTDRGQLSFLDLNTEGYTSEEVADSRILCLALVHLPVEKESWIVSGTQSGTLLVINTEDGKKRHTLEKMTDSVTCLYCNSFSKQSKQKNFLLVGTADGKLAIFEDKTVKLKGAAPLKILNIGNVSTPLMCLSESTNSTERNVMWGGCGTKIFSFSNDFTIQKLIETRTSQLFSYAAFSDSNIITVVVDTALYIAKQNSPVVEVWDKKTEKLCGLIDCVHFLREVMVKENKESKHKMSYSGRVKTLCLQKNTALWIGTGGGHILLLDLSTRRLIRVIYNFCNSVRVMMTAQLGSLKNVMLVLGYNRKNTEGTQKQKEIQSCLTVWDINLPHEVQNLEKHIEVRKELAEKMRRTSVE

The IC50 is the point on the concentration scale where inhibition reaches its midpoint. A higher IC50 goes with lower potency. Regarding `CNc1nc(Nc2ccc(C(=O)N3CCOCC3)cc2OC)nc2[nH]ccc12` [US10913744, Compound 8], the IC50 in experiment [1] amounted to 5.1 nM; in experiment [2], 2.6 nM.
